Assay results reported in patent publication US8232271B2 (priority 2008, dated 2012).

Legend:
[1] = target: T1, HCV polymerase (NS5B570n-Con1) (Hepatitis C virus genotype 1b, UniProt Q9WMX2); assay: HCV NS5B RNA polymerase activity assay; format: biochemical, HCV Con1 strain
T1 construct: contains a 21 amino acid deletion at the C-terminus relative to the full-length HCV polymerase; 6-histidine (N); made in house; host or cells: E. coli BL21(DE) pLysS, plasmid pET17b
Procedure: The enzymatic activity of HCV polymerase (NS5B570n-Con1) was measured as the incorporation of radiolabeled nucleotide monophosphates into acid insoluble RNA products. Unincorporated radiolabeled substrate was removed by filtration and scintillant was added to the washed and dried filter plate containing radiolabeled RNA product. The amount of RNA product generated by NS5B570-Con1 at the end of the reaction was directly proportional to the amount of light emitted by the scintillant.
The N-terminal 6-histidine tagged HCV polymerase, derived from HCV Con1 strain, genotype 1b (NS5B570n-Con1) contains a 21 amino acid deletion at the C-terminus relative to the full-length HCV polymerase and was purified from E. coli strain BL21(DE) pLysS. The construct, containing the coding sequence of HCV NS5B Con1 (GenBank accession number AJ242654) was inserted into the plasmid construct pET17b, downstream of a T7 promoter expression cassette and transformed into E. coli. A single colony was grown overnight as a starter culture and later used inoculate 10 L of LB media supplemented with 100 μg/mL ampicillin at 37° C. Protein expression was induced by the addition of 0.25 mM isopropyl-β-D-thiogalactopyranoside (IPTG) when optical density at […] of the culture was between 0.6 and 0.8 and cells were harvested after 16 to 18 h at 30° C. NS5B570n-Con1 was purified to homogeneity using a three-step protocol including subsequent column chromatography on Ni-NTA, SP-Sepharose HP and Superdex 75 resins.
Each 50 μl enzymatic reaction contained 20 nM RNA template derived from the complementary sequence of the Internal Ribosome Entry Site (cIRES), 20 nM NS5B570n-Con1 enzyme, 0.5 μCi of tritiated UTP (Perkin Elmer catalog no. TRK-412; specific activity: 30 to 60 Ci/mmol; stock solution concentration from 7.5×10^-5 M to 20.6×10^-6 M), 1 μM each ATP, CTP, and GTP, 40 mM Tris-HCl pH 8.0, 40 mM NaCl, 4 mM DTT (dithiothreitol), 4 mM MgCl2, and 5 μl of compound serial diluted in DMSO. Reaction mixtures were assembled in 96-well filter plates (cat #MADVN0B, Millipore Co.) and incubated for 2 h at 30° C. Reactions were stopped by addition of 10% final (v/v) trichloroacetic acid and incubated for 40 min at 4° C. Reactions were filtered, washed with 8 reaction volumes of 10% (v/v) trichloroacetic acetic acid, 4 reaction volumes of 70% (v/v) ethanol, air dried, and 25 μl of scintillant (Microscint 20, Perkin-Elmer) was added to each reaction well.
The amount of light emitted from the scintillant was converted to counts per minute (CPM) on a Topcount® plate reader (Perkin-Elmer, Energy Range: Low, Efficiency Mode: Normal, Count Time: 1 min, Background Subtract: none, Cross talk reduction: Off).
Data was analyzed in Excel® (Microsoft®) and ActivityBase® (Idbs®). The reaction in the absence of enzyme was used to determine the background signal, which was subtracted from the enzymatic reactions. Positive control reactions were performed in the absence of compound, from which the background corrected activity was set as 100% polymerase activity. All data was expressed as a percentage of the positive control. The compound concentration at which the enzyme-catalyzed rate of RNA synthesis was reduced by 50% (IC50) was calculated by fitting
[formula] equation (i) to the data. where “Y” corresponds to the relative enzyme activity (in %), “% Min” is the residual relative activity at saturating compound concentration, “% Max” is the relative maximum enzymatic activity, “X” corresponds to the compound concentration, and “S” is the Hill coefficient (or slope).

Compound: COc1cc(C(=O)O)c(-c2ccc[nH]c2=O)cc1C(C)(C)C [Compound I-4, 4-tert-Butyl-5-methoxy-2-(2-oxo-1,2-dihydro-pyridin-3-yl)-benzoic acid]
- melting point: 244 to 245 °C
- IC50 [1]: 27 nM

Compound: COc1cc(CN2CCOC2=O)c(-c2ccc[nH]c2=O)cc1C(C)(C)C [Compound I-74]
- IC50 [1]: 56 nM

Compound: COc1cc(CNS(=O)(=O)C(C)C)c(-c2ccc[nH]c2=O)cc1C(C)(C)C [Compound I-25]
- melting point: 118 to 120 °C
- IC50 [1]: 183 nM

Compound: COc1cc(C(=O)N2CCOC(CO)C2)c(-c2ccc[nH]c2=O)cc1C(C)(C)C (stereo not drawn) [Compound I-78]
- IC50 [1]: 1410 nM

Compound: COc1cc(CN2C(=O)CCC2=O)c(-c2ccc[nH]c2=O)cc1C(C)(C)C [Compound I-29]
- melting point: 112.2 to 124.9 °C
- IC50 [1]: 68 nM

Compound: COc1cc(CN(CC2CCN(C(C)=O)C2)S(C)(=O)=O)c(-c2ccc[nH]c2=O)cc1C(C)(C)C (stereo not drawn) [Compound I-48, N-(1-acetyl-pyrrolidin-3-ylmethyl)-N-[4-tert-butyl-5-methoxy-2-(2-oxo-1,2-dihydro-pyridin-3-yl)-benzyl]-methanesulfonamide]
- melting point: 196 to 198 °C
- IC50 [1]: 84 nM

Compound: COc1cc(CN(C)S(C)(=O)=O)c(-c2ccc[nH]c2=O)cc1C(C)(C)C [Compound I-86]
- melting point: 230 to 231 °C
- IC50 [1]: 52 nM

Compound: COc1cc(C(C)N(C)S(C)(=O)=O)c(-c2ccc[nH]c2=O)cc1C(C)(C)C (stereo not drawn) [Compound I-53, N-{1-[4-tert-Butyl-5-methoxy-2-(2-oxo-1,2-dihydro-pyridin-3-yl)-phenyl]-ethyl}-N-methyl-methanesulfonamide]
- melting point: 205 to 207 °C
- IC50 [1]: 187 nM

Compound: COc1cc(CN2CCN(C)S2(=O)=O)c(-c2ccc[nH]c2=O)cc1C(C)(C)C [Compound I-64, 3-[5-tert-Butyl-4-methoxy-2-(5-methyl-1,1-dioxo-1λ^6-[1,2,5]thiadiazolidin-2-ylmethyl)-phenyl]-1H-pyridin-2-one]
- melting point: 253 to 255 °C
- IC50 [1]: 60 nM

Compound: COc1cc(C(=O)N(C)CC#N)c(-c2ccc[nH]c2=O)cc1C(C)(C)C [Compound I-66]
- melting point: 211 to 212 °C
- IC50 [1]: 152 nM

Compound: COc1cc(CC(=O)O)c(-c2ccc[nH]c2=O)cc1C(C)(C)C [Compound I-7, [4-tert-Butyl-5-methoxy-2-(2-oxo-1,2-dihydro-pyridin-3-yl)-phenyl]-acetic acid]
- IC50 [1]: 156 nM

Compound: COc1cc(CN2C(=O)OC[C@@H]2C(C)C)c(-c2ccc[nH]c2=O)cc1C(C)(C)C [Compound I-76, 3-[5-tert-Butyl-2-((S)-4-isopropyl-2-oxo-oxazolidin-3-ylmethyl)-4-methoxy-phenyl]-1H-pyridin-2-one]
- IC50 [1]: 134 nM

Compound: COc1cc(CN2Cc3ccc(NS(C)(=O)=O)cc3C2=O)c(-c2ccc[nH]c2=O)cc1C(C)(C)C [Compound I-92]
- melting point: 173 to 175 °C
- IC50 [1]: 8 nM

Compound: COc1cc(C(=O)N2CCC(C#N)CC2)c(-c2ccc[nH]c2=O)cc1C(C)(C)C [Compound I-56, 1-[4-tert-Butyl-5-methoxy-2-(2-oxo-1,2-dihydro-pyridin-3-yl)-benzoyl]-piperidine-4-carbonitrite]
- melting point: 213 to 215 °C
- IC50 [1]: 432 nM

Compound: COc1cc(CN(CCO)S(C)(=O)=O)c(-c2ccc[nH]c2=O)cc1C(C)(C)C [Compound I-35, N-[4-tert-butyl-5-methoxy-2-(2-oxo-1,2-dihydro-pyridin-3-yl)-benzyl]-N-(2-hydroxy-ethyl)-methanesulfonamide]
- melting point: 234.7 to 236 °C
- IC50 [1]: 26 nM

Compound: COc1cc(C(=O)N(C)Cc2ccc(F)cc2)c(-c2ccc[nH]c2=O)cc1C(C)(C)C [Compound I-77]
- melting point: 218 to 220 °C
- IC50 [1]: 611 nM

Compound: COc1cc(CNS(=O)(=O)Cc2ccccc2)c(-c2ccc[nH]c2=O)cc1C(C)(C)C [Compound I-20]
- melting point: 249 to 250 °C
- IC50 [1]: 211 nM

Compound: COc1cc(CNS(N)(=O)=O)c(-c2ccc[nH]c2=O)cc1C(C)(C)C [Compound I-50, N-[4-tert-Butyl-5-methoxy-2-(2-oxo-1,2-dihydro-pyridin-3-yl)-benzyl]-sulfamide]
- IC50 [1]: 49 nM

Compound: CNC(=O)Cc1cc(OC)c(C(C)(C)C)cc1-c1ccc[nH]c1=O [Compound I-10, 2-[4-tert-Butyl-5-methoxy-2-(2-oxo-1,2-dihydro-pyridin-3-yl)-phenyl]-N-methyl-acetamide]
- IC50 [1]: 700 nM

Compound: COc1cc(CCC(=O)O)c(-c2ccc[nH]c2=O)cc1C(C)(C)C [Compound I-1, 3-[4-tert-Butyl-5-methoxy-2-(2-oxo-1,2-dihydro-pyridin-3-yl)-phenyl]-propionic acid]
- IC50 [1]: 273 nM

Compound: COC(=O)CCc1cc(OC)c(C(C)(C)C)cc1-c1ccc[nH]c1=O [Compound I-3, 3-[4-tert-Butyl-5-methoxy-2-(2-oxo-1,2-dihydro-pyridin-3-yl)-phenyl]-propionic acid methyl ester]
- IC50 [1]: 954 nM

Compound: COc1cc(CNS(C)(=O)=O)c(-c2ccc[nH]c2=O)cc1C(C)(C)C [Compound I-13, N-[4-tert-Butyl-5-methoxy-2-(2-oxo-1,2-dihydro-pyridin-3-yl)-benzyl]-methane sulfonamide]
- IC50 [1]: 64 nM

Compound: COc1cc(CN(C(C)=O)c2ccccc2)c(-c2ccc[nH]c2=O)cc1C(C)(C)C [Compound I-89]
- IC50 [1]: 106 nM

Compound: COc1cc(CN2CCCC2=O)c(-c2ccc[nH]c2=O)cc1C(C)(C)C [Compound I-18, 3-[5-tert-Butyl-4-methoxy-2-(2-oxo-pyrrolidin-1-ylmethyl)-phenyl]-1H-pyridin-2-one]
- IC50 [1]: 121 nM

Compound: COc1cc(CNC(=O)c2ccc(N(S(C)(=O)=O)S(C)(=O)=O)cc2)c(-c2ccc[nH]c2=O)cc1C(C)(C)C [Compound I-44]
- IC50 [1]: 774 nM

Compound: COc1cc(CNC(C)=O)c(-c2ccc[nH]c2=O)cc1C(C)(C)C [Compound I-12]
- IC50 [1]: 125 nM

Compound: COc1cc(CNS(C)(=O)=O)c(-c2cc(F)c[nH]c2=O)cc1C(C)(C)C [Compound I-45]
- IC50 [1]: 687 nM

Compound: CNC(=O)c1cc(OC)c(C(C)(C)C)cc1-c1ccc[nH]c1=O [Compound I-9, 4-tert-Butyl-5-methoxy-N-methyl-2-(2-oxo-1,2-dihydro-pyridin-3-yl)-benzamide]
- IC50 [1]: 442 nM

Compound: COc1cc(C(=O)NCC#N)c(-c2ccc[nH]c2=O)cc1C(C)(C)C [Compound I-85]
- IC50 [1]: 23 nM

Compound: COc1cc(CS(C)(=O)=O)c(-c2ccc[nH]c2=O)cc1C(C)(C)C [Compound I-15, 3-(5-tert-Butyl-2-methanesulfonylmethyl-4-methoxy-phenyl)-1H-pyridin-2-one]
- IC50 [1]: 746 nM

Compound: COc1cc(CC(N)=O)c(-c2ccc[nH]c2=O)cc1C(C)(C)C [Compound I-11, 2-[4-tert-Butyl-5-methoxy-2-(2-oxo-1,2-dihydro-pyridin-3-yl)-phenyl]-acetamide]
- IC50 [1]: 437 nM

Compound: COc1cc(C(=O)N2CCC(Oc3ccccc3)CC2)c(-c2ccc[nH]c2=O)cc1C(C)(C)C [Compound I-79]
- IC50 [1]: 1320 nM

Compound: COc1cc(CNC(=O)c2cccnc2)c(-c2ccc[nH]c2=O)cc1C(C)(C)C [Compound I-49]
- IC50 [1]: 26 nM

Compound: COc1cc(CN(C)C(C)=O)c(-c2ccc[nH]c2=O)cc1C(C)(C)C [Compound I-14]
- IC50 [1]: 151 nM

Compound: COc1cc(CN2C(=O)OC[C@H]2C(C)C)c(-c2ccc[nH]c2=O)cc1C(C)(C)C [Compound I-75]
- IC50 [1]: 86 nM
